Laboratory results: patent US5405869A, “Anti-tumor platinum complexes” (Istituto Nazionale per la Ricerca sul Cancro, priority 1991, dated 1995)

Columns and labels:
leukemia cells K562 = settings: read-out: ID50; K562, incorporation of tritiated thymidine at 48 hours
Method: (§1) The evaluation of the cytotoxic activities of the compounds (1) was carried out "in vitro" measuring, according to known methods, the inhibition of the colony formation, the cell viability (Trypan blu) and the incorporation of tritiated thymidine in tumoral and normal cells.

leukemia cells P388 = settings: read-out: ID50; P388, incorporation of tritiated thymidine at 48 hours
Method: as §1

leukemia cells Jurkat = settings: read-out: ID50, incorporation of tritiated thymidine at 48 hours
Method: as §1

Substance: cis-diamino-chloro-(4-amino)benzoate-platinum(II) hydrochloride [Compound 1A]
- IC50 (leukemia cells K562): 26.3 µM
- IC50 (leukemia cells P388): 11.4 µM
- IC50 (leukemia cells Jurkat): 21.3 µM
